A short description of data set [1]: Storage stability of the amorphous salt by x-ray powder diffraction. Type of data set: physicochemical. The note with it: storage at room temperature in a sealed vessel; XRD curves after production and after storage essentially the same (FIG. 5). The text has this:
The reason for this is that the general experience with amorphous active substances is that they are less chemically stable, also while amorphous substances are left to stand, optionally, during storage, or in the pharmaceutical preparation itself they partially or completely transform into a crystalline form or into a mixture of several crystalline forms forming a morphologically inhomogeneous (non-uniform) active substance. Furthermore the solubility of the unstable amorphous compound usually differs from the solubility of the crystalline active substance, a morphological change during storage may lead to a change in the effect of the preparation. However, contrary to the general expectations it was surprising to experience that the formula (III) amorphous lumateperone salt according to the invention, in which salt the molar ratio of the formula (I) lumateperone and p-toluenesulfonic acid is 1:1, remains stable for 3 months (see FIG. 5) without transforming into the very stable polymorph form A or other form. […] It can be seen that the two curves are essentially the same, no peaks characteristic of crystalline forms are apparent even after storage. […] [table] [table]

Data set [2] can be described thus: DSC measurement of the amorphous tosylate. Type of data set: physicochemical. The note with it: 30° C. - 190° C., 10° C./min, open Al crucible. On the procedure: According to DSC measurements the amorphous form formed with p-toluenesulfonic acid according to the invention only transforms into the crystalline form A at a temperature of around 120° C. This supports that the amorphous form is suitable for the production of pharmaceutical preparations. In other words the advantage of the invention is that the amorphous salt according to the invention is morphologically uniform and stable. Therefore, it is not expected to transform into another form in the pharmaceutical preparation, and the quality of the preparations, primarily its dissolution characteristics are not expected to change. The morphological uniformity is supported by the x-ray powder diffractogram of the novel salt, it confirms its uniform crystal structure and enables the identification of the form even in a pharmaceutical preparation, thereby making it possible to monitor the quality at a later time, and differentiate it from other crystalline polymorphous forms. [table]
In general terms: In DSC, transitions show as peaks or steps in heat flow.

SMILES strings stand for the structures.

As for `CN1CCN2c3c(cccc31)[C@@H]1CN(CCCC(=O)c3ccc(F)cc3)CC[C@@H]12.Cc1ccc(S(=O)(=O)O)cc1`, the “remains stable without transforming into the very stable polymorph form A or other form” value in data set [1] was 3 months. Further, the “temperature at which the amorphous form transforms into the crystalline form A” value in data set [2] was “around 120 °C”.
